# Data from paper PMC12101129, “An optimized CYP3A4-activatable fluorogenic sensor for in situ functional imaging and multi-dimensional inhibitor assessment” (Chemical Science, 2025).
# What was measured:
# [1] = tested on: CYP3A; assay: CYP3A inhibition assay in mouse liver microsomes; type: biochemical; details: MLMs
# [2] = tested on: CYP3A4; assay: Liver organ imaging in the presence of CYP3A4 inhibitor; parameters: species or system mice; details: male, C57BL/6J, mouse, isolated liver tissue, probe NCN (50 µM); read-out: residual activity of hepatic CYP3A4
# Procedure: dose group (CCl4-L, 0.15%), and CCl4 high dose group (CCl4-H, 0.3%). CCl4 was dissolved in vegetable oil and administered via intraperitoneal injection. After that, mice were fasted and allowed to drink water freely. After 18 h, blood samples were collected to determine the level of ALT and AST, while liver tissues were collected and washed with PBS. Then, the liver tissues were soaked 30 min in a solution containing NCN (50 μM, 5 mL) for fluorescent imaging. After organ imaging, the tissues were ground, and centrifuged, and the supernatant was diluted with 10-fold acetonitrile to precipitate the protein. After centrifugation again, the supernatant was determined to quantify the level of HNCN.
# 1.15. Bio-safety assessment of NCN in healthy mice
# Sixteen C57BL/6J mice (8 males and 8 females, 6 weeks) were randomly assigned into two groups (4 males and 4 females). All mice were subjected to adaptive feeding for 7 d before the experiment. […] Mice organs were weighed and the organ index was calculated, and hematoxylin and eosin (H&E) stains were provided by Shanghai Ruibaohe Biotechnology Co., Ltd. […]
# After that, the liver tissues were removed, and fluorescence imaging of the liver was performed using VISQUE Invivo Smart-LF. […]
# quantify the levels of HNCN. […]
# fluorescence intensity of the control (solvent only)) × 100%. […]
structure (smiles),measurement,setting,value
"CC(=O)N1CCN(c2ccc(OCC3COC(Cn4ccnc4)(c4ccc(Cl)cc4Cl)O3)cc2)CC1 (centres unmarked) [KCZ, ketoconazole]",IC50,[1],[…]
same,"activity at 1 h, 1 µM",[2],~20%
